The experiment relates to Apt(ATP) (DNA, aptamer) TCTCTCACCTGGGGGAGTATTGCGGAGGAAGGT
Put plainly: FAM fluorescence quenching titration. The conditions noted are these: 100 mM NaCl, 5 mM MgCl2, 20 mM Tris-HCl, pH 7.4, 66.7 nM aptamer.

Molecules are shown by their SMILES.

With `Nc1ncnc2c1ncn2[C@@H]1O[C@H](COP(=O)(O)OP(=O)(O)OP(=O)(O)O)[C@@H](O)[C@H]1O`, the binding result (67.1% quenching at about 0.33 mM ATP) is “yes”. For the compound `O=c1ccn([C@@H]2O[C@H](COP(=O)(O)OP(=O)(O)OP(=O)(O)O)[C@@H](O)[C@H]2O)c(=O)[nH]1`, for the setting “weaker quenching than ATP, up to about 330 μM”, the binding entry was “weak”. Regarding `Nc1nc2c(ncn2[C@@H]2O[C@H](COP(=O)(O)OP(=O)(O)OP(=O)(O)O)[C@@H](O)[C@H]2O)c(=O)[nH]1`, the binding result (18.6% quenching at about 330 μM) is “weak”. Consider `Nc1ccn([C@@H]2O[C@H](COP(=O)(O)OP(=O)(O)OP(=O)(O)O)[C@@H](O)[C@H]2O)c(=O)n1`, for which, for the setting “35.7% quenching at about 330 μM”, the binding result is reported as “weak”.
